In patent US20030215959A1, “Method of screening binding of a compound to a receptor” (priority 2002, published 2003):

Assays:
[1] = tested on: non-NMDA glutamate receptors in mouse cortical cells; assay: CNQX displacement assay with homogenized mouse cortical cells, visible difference absorption spectra; assay type: binding; settings: homogenized mouse cortical cells with CNQX in PBS pH 7.4; test compound 100 μM; 310 nm to 450 nm; FIG. 2 traces A-B
Method: Cortical neuronal cultures: Mixed cortical cell cultures containing both neurons and astrocytes were prepared from fetal mice (15-16 day gestation) as described by Asrari and Lobner (14). Briefly, dissociated cortical cells were plated on a preexisting astrocyte monolayer in a 24-well plate (a plating density of ˜2.5×10^5 cells per well). The plating medium was Eagle's minimal essential medium (MEM) (Earle's salts, supplied glutamine-free) supplemented with 5% fetal bovine serum, 5% horse serum, 2 mM glutamine and 20 mM glucose. Non-neuronal cell division was halted at 3-5 days in vitro by 3-day exposure to […] cytosine arabinoside. Cultures were maintained in humidified 5% CO2 incubators at 37° C. and were used for experiments at 14-16 days in vitro.
Absorption measurements: The UV-visible absorption spectra were obtained using Agilent 8453 or Shimadzu UV 2501 spectrometers. The spectra were recorded in the 310 nm to 450 nm range, at a spectral resolution of 2 nm, using a 1 cm quartz cuvette as the sample holder. […]
Dissociated mouse cortical cells were obtained as outlined in the Materials and Methods section. […] CNQX was added to the cells such that the final absorption of the sample in the 310 nm to 450 nm range was less than 1 absorbance unit. […]

[2] = target: T1, GluR2-S1S2 (ligand-binding domain of the GluR2 subunit of the glutamate receptor) (Rattus norvegicus, UniProt P19491); assay: Quinoxaline (CNQX) displacement assay with GluR2-S1S2, visible difference absorption spectra; settings: GluR2-S1S2 bound to 25 μM CNQX; test ligand 50 μM; phosphate buffer pH 7.4; 310 nm to 450 nm; FIG. 1 traces B-E
T1 construct: made in house
T1 sequence (P19491 411-527): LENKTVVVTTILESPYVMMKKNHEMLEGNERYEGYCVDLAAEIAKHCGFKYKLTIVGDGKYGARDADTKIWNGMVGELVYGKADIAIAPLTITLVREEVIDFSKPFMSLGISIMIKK
T1 sequence (P19491 653-796): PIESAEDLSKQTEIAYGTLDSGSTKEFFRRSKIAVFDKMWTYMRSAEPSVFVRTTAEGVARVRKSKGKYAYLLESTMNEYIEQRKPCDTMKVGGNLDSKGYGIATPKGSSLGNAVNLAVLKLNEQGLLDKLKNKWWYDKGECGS
Description: To begin, a baseline or control spectrum of the free quinoxaline derivative in buffer solution is generated. A second spectrum is then taken of the quinoxaline admixed with the receptor under investigation. A difference spectrum is then generated between the first spectrum (free quinoxaline) and second spectrum (protein-bound quinoxaline). The characteristic features of this difference spectrum arise due to changes in the electronic spectrum of the quinoxaline derivative bound to the protein as compared to the electronic spectrum of the free quinoxaline. Thus, the difference spectrum can be used as the control to test for compounds that compete for the same binding site as quinoxaline derivative.
With the difference spectrum in hand as a control, a known amount of a test agent is added to a test well containing the receptor protein and the quinoxaline derivative. […] A visible spectrum is than taken of the test well. This test spectrum is then compared to the control spectrum to see if they share the same characteristic changes in the electronic character of the quinoxaline. […]

Row | displacement of bound CNQX from the receptor protein (difference spectrum) [2] | SMILES | displacement of CNQX from the non-NMDA glutamate receptors in cortical cells (difference spectrum) [1]
1 |  | N[C@@H](CCC(=O)O)C(=O)O [glutamate] | is displaced by the addition of glutamate
2 | does not displace CNQX from the protein | NCCCC(=O)O [γ-amino butyric acid] | CNQX is not displaced
